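Five concentrations, 48 hours, 96-well plates. At the GI50, growth is halved.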 The source made the active and inactive calls. Rule as the data show it: active = GI50 up to about 1.1 µM and inactive = higher.
Tests used:
Experiment in all cases: NCI anticancer screen, dose series, 48 h
MDA-N = system: MDA-N
UACC-62 = system: UACC-62
T47D = system: T47D
NCI-H23 = system: NCI-H23
SF-539 = system: SF-539
A549 = system: A549
Malme-3M = system: Malme-3M
SF-295 = system: SF-295
HT-29 = system: HT-29
786-0 = system: 786-0
SK-OV-3 = system: SK-OV-3
MCF7 = system: MCF7
SK-MEL-5 = system: SK-MEL-5
TK-10 = system: TK-10
HCT-116 = system: HCT-116
RPMI-8226 = system: RPMI-8226
CAKI-1 = system: CAKI-1
KM12 = system: KM12
DU-145 = system: DU-145
COLO 205 = system: COLO 205
NCI-H522 = system: NCI-H522
IGROV-1 = system: IGROV-1
MDA-MB-435 = system: MDA-MB-435
OVCAR-8 = system: OVCAR-8
SNB-19 = system: SNB-19
SN12C = system: SN12C
PC-3 = system: PC-3
U-251 = system: U-251
OVCAR-3 = system: OVCAR-3
K562 = system: K562
SF-268 = system: SF-268
SW-620 = system: SW-620
HCC 2998 = system: HCC 2998
MDA-MB-231 = system: MDA-MB-231
NCI-H460 = system: NCI-H460
NCI-H226 = system: NCI-H226
LOX IMVI = system: LOX IMVI
HOP-92 = system: HOP-92
SK-MEL-2 = system: SK-MEL-2
RXF 393 = system: RXF 393
UO-31 = system: UO-31
ACHN = system: ACHN
Hs-578T = system: Hs-578T
NCI/ADR-RES = system: NCI/ADR-RES
UACC-257 = system: UACC-257
EKVX = system: EKVX
OVCAR-4 = system: OVCAR-4
MOLT-4 = system: MOLT-4
HCT-15 = system: HCT-15
SR = system: SR
OVCAR-5 = system: OVCAR-5
A498 = system: A498
BT-549 = system: BT-549
M14 = system: M14
HOP-62 = system: HOP-62
SK-MEL-28 = system: SK-MEL-28
CCRF-CEM = system: CCRF-CEM
SNB-75 = system: SNB-75

Measured: GI50

O=c1[nH]nc(Cc2ccccc2)n1/N=C/c1ccccc1Cl
inactive: MDA-N > 100 µM | UACC-62 > 100 µM | T47D > 100 µM | NCI-H23 > 100 µM | SF-539 > 100 µM | A549 > 100 µM | Malme-3M > 100 µM | SF-295 52.2 µM | HT-29 > 100 µM | 786-0 41.1 µM | SK-OV-3 > 100 µM | MCF7 > 100 µM | SK-MEL-5 > 100 µM | TK-10 > 100 µM | HCT-116 > 100 µM | RPMI-8226 > 100 µM | CAKI-1 > 100 µM | KM12 > 100 µM | DU-145 > 100 µM | COLO 205 > 100 µM | NCI-H522 > 100 µM | IGROV-1 > 100 µM | MDA-MB-435 > 100 µM | OVCAR-8 > 100 µM | SNB-19 > 100 µM | SN12C > 100 µM | PC-3 > 100 µM | U-251 53.1 µM | OVCAR-3 > 100 µM | K562 > 100 µM | SF-268 > 100 µM | SW-620 > 100 µM | HCC 2998 > 100 µM | MDA-MB-231 > 100 µM | NCI-H460 > 100 µM | NCI-H226 > 100 µM | LOX IMVI > 100 µM | HOP-92 95.9 µM | SK-MEL-2 > 100 µM | RXF 393 3.56 µM | UO-31 > 100 µM | ACHN > 100 µM | Hs-578T 43.4 µM | NCI/ADR-RES > 100 µM | UACC-257 > 100 µM | EKVX > 100 µM | OVCAR-4 > 100 µM | MOLT-4 > 100 µM | SR > 100 µM | OVCAR-5 > 100 µM | A498 > 100 µM | BT-549 > 100 µM
> 100 µM: HCT-15

CCN1C[C@]2(C)CC[C@H](OCc3ccccc3)C34C5C[C@@H]6CC[C@](O)(C(C[C@@H]32)C14)C5[C@H]6OCc1ccccc1 (some centres not stated)
> 100 µM: HCT-15
inactive: MDA-N 75.5 µM | UACC-62 > 100 µM | T47D 56.1 µM | NCI-H23 > 100 µM | SF-539 > 100 µM | A549 > 100 µM | Malme-3M > 100 µM | SF-295 > 100 µM | HT-29 55.2 µM | 786-0 > 100 µM | SK-OV-3 > 100 µM | MCF7 7.01 µM | SK-MEL-5 51.3 µM | TK-10 45.8 µM | HCT-116 42.7 µM | RPMI-8226 31 µM | KM12 38.5 µM | DU-145 > 100 µM | COLO 205 42 µM | IGROV-1 92.3 µM | MDA-MB-435 90.8 µM | OVCAR-8 93.8 µM | SNB-19 > 100 µM | SN12C > 100 µM | PC-3 21.7 µM | U-251 64.9 µM | OVCAR-3 35.6 µM | K562 55.6 µM | SF-268 > 100 µM | SW-620 > 100 µM | M14 46.9 µM | HCC 2998 20 µM | MDA-MB-231 52.1 µM | NCI-H460 31.2 µM | NCI-H226 > 100 µM | LOX IMVI > 100 µM | HOP-92 > 100 µM | HOP-62 > 100 µM | SK-MEL-2 83.9 µM | RXF 393 53.1 µM | SK-MEL-28 > 100 µM | UO-31 73.1 µM | ACHN 32.4 µM | Hs-578T > 100 µM | NCI/ADR-RES > 100 µM | UACC-257 29.9 µM | EKVX 44.7 µM | OVCAR-4 85.1 µM | MOLT-4 16.7 µM | CCRF-CEM 56.5 µM | SNB-75 49 µM | SR 54.8 µM | OVCAR-5 > 100 µM | A498 > 100 µM | BT-549 > 100 µM

COC(=O)C#CC1(O)C=CC(=O)C=C1
active: UACC-62 0.865 µM | T47D 0.583 µM | SF-539 1.12 µM | HT-29 0.253 µM | 786-0 0.483 µM | MCF7 0.352 µM | HCT-116 0.256 µM | RPMI-8226 0.687 µM | CAKI-1 0.209 µM | KM12 0.843 µM | NCI-H522 0.175 µM | IGROV-1 0.508 µM | MDA-MB-435 0.436 µM | OVCAR-8 0.203 µM | SN12C 0.789 µM | U-251 0.841 µM | OVCAR-3 0.367 µM | K562 0.392 µM | SF-268 0.664 µM | SW-620 0.299 µM | LOX IMVI 0.275 µM | HOP-92 0.891 µM | SK-MEL-28 0.579 µM | UO-31 0.889 µM | ACHN 0.571 µM | NCI/ADR-RES 0.525 µM | MOLT-4 0.0933 µM | CCRF-CEM 0.106 µM | SR 0.0519 µM | BT-549 1.01 µM
0.248 µM: HCT-15
inactive: MDA-N 1.18 µM | NCI-H23 1.57 µM | A549 9.46 µM | Malme-3M 2 µM | SF-295 8.69 µM | SK-OV-3 28 µM | SK-MEL-5 1.72 µM | TK-10 1.18 µM | DU-145 1.38 µM | COLO 205 2.41 µM | SNB-19 4.63 µM | PC-3 1.29 µM | M14 1.25 µM | HCC 2998 2.54 µM | MDA-MB-231 2 µM | NCI-H460 2.71 µM | NCI-H226 5.07 µM | HOP-62 4.72 µM | SK-MEL-2 2.36 µM | RXF 393 1.58 µM | Hs-578T 2.79 µM | UACC-257 1.15 µM | EKVX 4.12 µM | OVCAR-4 3.13 µM | SNB-75 3.9 µM | OVCAR-5 1.42 µM | A498 34 µM

COc1ccc2c(c1)-c1nc(=S)n(CCN(C)C)c3ccc([N+](=O)[O-])c(c13)N2
0.731 µM: HCT-15
inactive: UACC-62 10.6 µM | T47D 4.81 µM | NCI-H23 1.16 µM | SK-MEL-5 3.65 µM | CAKI-1 1.49 µM | MDA-MB-435 2.1 µM | OVCAR-3 1.23 µM | M14 2.94 µM | MDA-MB-231 1.23 µM | HOP-92 6.61 µM | SK-MEL-2 7.31 µM | SK-MEL-28 1.44 µM | Hs-578T 1.37 µM | EKVX 1.97 µM | OVCAR-4 2.36 µM | SNB-75 1.3 µM | OVCAR-5 3.13 µM | A498 8.13 µM | BT-549 10.3 µM
active: MDA-N 0.948 µM | SF-539 0.824 µM | A549 0.515 µM | Malme-3M 0.693 µM | SF-295 0.794 µM | HT-29 0.498 µM | 786-0 0.462 µM | SK-OV-3 0.57 µM | MCF7 0.861 µM | TK-10 1.07 µM | HCT-116 0.247 µM | RPMI-8226 0.573 µM | KM12 0.971 µM | DU-145 0.923 µM | COLO 205 0.865 µM | NCI-H522 0.533 µM | IGROV-1 0.832 µM | OVCAR-8 0.484 µM | SNB-19 0.828 µM | SN12C 0.638 µM | PC-3 1.06 µM | U-251 1.08 µM | K562 0.389 µM | SF-268 0.671 µM | SW-620 0.404 µM | HCC 2998 0.809 µM | NCI-H460 0.365 µM | NCI-H226 0.973 µM | LOX IMVI 0.738 µM | HOP-62 0.594 µM | RXF 393 1.1 µM | UO-31 0.794 µM | ACHN 0.345 µM | NCI/ADR-RES 1.09 µM | UACC-257 1 µM | MOLT-4 0.15 µM | CCRF-CEM 1.09 µM | SR 0.419 µM

NC(=O)C(=CNC(=S)Nc1ccc(S(=O)(=O)Nc2ccccn2)cc1)C(N)=O
> 78 µM: HCT-15
inactive: MDA-N > 93.8 µM | UACC-62 > 100 µM | T47D > 100 µM | NCI-H23 > 100 µM | SF-539 > 100 µM | A549 > 100 µM | SF-295 > 100 µM | HT-29 > 100 µM | 786-0 > 100 µM | SK-OV-3 > 100 µM | MCF7 > 83.2 µM | SK-MEL-5 > 100 µM | TK-10 > 100 µM | HCT-116 46.7 µM | RPMI-8226 > 100 µM | CAKI-1 > 100 µM | KM12 > 100 µM | DU-145 > 100 µM | COLO 205 > 100 µM | NCI-H522 50.5 µM | IGROV-1 > 100 µM | MDA-MB-435 > 100 µM | OVCAR-8 > 100 µM | SNB-19 > 100 µM | SN12C > 100 µM | PC-3 > 100 µM | U-251 > 100 µM | OVCAR-3 > 100 µM | K562 40.6 µM | SF-268 > 100 µM | SW-620 39.3 µM | M14 > 100 µM | HCC 2998 > 10 µM | MDA-MB-231 > 100 µM | NCI-H460 > 100 µM | NCI-H226 > 100 µM | LOX IMVI > 93.1 µM | HOP-92 > 100 µM | HOP-62 > 100 µM | SK-MEL-2 > 100 µM | RXF 393 > 100 µM | SK-MEL-28 > 100 µM | UO-31 > 100 µM | ACHN > 100 µM | Hs-578T > 100 µM | NCI/ADR-RES 55.3 µM | UACC-257 > 100 µM | EKVX > 100 µM | OVCAR-4 > 100 µM | MOLT-4 1.52 µM | CCRF-CEM 30 µM | SNB-75 > 100 µM | SR 41.5 µM | OVCAR-5 > 100 µM | A498 > 100 µM | BT-549 > 100 µM

Source: ChEMBL document CHEMBL1201862, “PubChem BioAssay data set” (2004)
